Measurements published in PubChem BioAssay (NCI).
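Following 48 hours of exposure in 96-well plates, responses at five concentrations were used to interpolate endpoints linearly. GI50: concentration for 50% inhibition of growth. The concentration for full growth arrest is given as TGI.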

Assays:
Test in all cases: NCI tumour cell line growth inhibition, 48 h
786-0 renal = tested on: 786-0 renal
A498 renal = tested on: A498 renal
A549 NSCLC = tested on: A549 NSCLC
ACHN renal = tested on: ACHN renal
BT-549 breast = tested on: BT-549 breast
CAKI-1 renal = tested on: CAKI-1 renal
CCRF-CEM leukemia = tested on: CCRF-CEM leukemia
COLO 205 colon = tested on: COLO 205 colon
DU-145 prostate = tested on: DU-145 prostate
EKVX NSCLC = tested on: EKVX NSCLC
HCC-2998 colon = tested on: HCC-2998 colon
HCT-116 colon = tested on: HCT-116 colon
HCT-15 colon = tested on: HCT-15 colon
HL-60(TB) leukemia = tested on: HL-60(TB) leukemia
HOP-62 NSCLC = tested on: HOP-62 NSCLC
HOP-92 NSCLC = tested on: HOP-92 NSCLC
HS 578T breast = tested on: HS 578T breast
HT29 colon = tested on: HT29 colon
IGROV1 ovarian = tested on: IGROV1 ovarian
K-562 leukemia = tested on: K-562 leukemia
KM12 colon = tested on: KM12 colon
LOX IMVI melanoma = tested on: LOX IMVI melanoma
M14 melanoma = tested on: M14 melanoma
MALME-3M melanoma = tested on: MALME-3M melanoma
MCF7 breast = tested on: MCF7 breast
MDA-MB-231 breast = tested on: MDA-MB-231 breast
MDA-MB-435 = tested on: MDA-MB-435
MOLT-4 leukemia = tested on: MOLT-4 leukemia
NCI-H226 lung = tested on: NCI-H226 lung
NCI-H23 lung = tested on: NCI-H23 lung
NCI-H460 lung = tested on: NCI-H460 lung
NCI-H522 lung = tested on: NCI-H522 lung
NCI/ADR-RES ovarian = tested on: NCI/ADR-RES ovarian
OVCAR-3 ovarian = tested on: OVCAR-3 ovarian
OVCAR-4 ovarian = tested on: OVCAR-4 ovarian
OVCAR-5 ovarian = tested on: OVCAR-5 ovarian
OVCAR-8 ovarian = tested on: OVCAR-8 ovarian
PC-3 prostate = tested on: PC-3 prostate
RPMI-8226 leukemia = tested on: RPMI-8226 leukemia
RXF 393 renal = tested on: RXF 393 renal
SF-268 CNS = tested on: SF-268 CNS
SF-295 CNS = tested on: SF-295 CNS
SF-539 CNS = tested on: SF-539 CNS
SK-MEL-2 melanoma = tested on: SK-MEL-2 melanoma
SK-MEL-28 melanoma = tested on: SK-MEL-28 melanoma
SK-MEL-5 melanoma = tested on: SK-MEL-5 melanoma
SK-OV-3 ovarian = tested on: SK-OV-3 ovarian
SN12C renal = tested on: SN12C renal
SNB-19 CNS = tested on: SNB-19 CNS
SNB-75 CNS = tested on: SNB-75 CNS
SR leukemia = tested on: SR leukemia
SW-620 colon = tested on: SW-620 colon
T-47D breast = tested on: T-47D breast
TK-10 renal = tested on: TK-10 renal
U251 CNS = tested on: U251 CNS
UACC-257 melanoma = tested on: UACC-257 melanoma
UACC-62 melanoma = tested on: UACC-62 melanoma
UO-31 renal = tested on: UO-31 renal

`O=C(N/N=C/c1ccc(Cl)s1)c1[nH]c2ccc(Br)cc2c1-c1ccccc1` was tested, and the GI50 (786-0 renal) was 418 nM, the TGI (786-0 renal) was > 41500 nM and the GI50 (A498 renal) was 28300 nM. For the same molecule, the TGI (A498 renal) was > 100000 nM, the GI50 (A549 NSCLC) was 376 nM and the TGI (A549 NSCLC) was > 48200 nM. For the same molecule, the GI50 (ACHN renal) was 361 nM, the TGI (ACHN renal) was > 61500 nM and the GI50 (BT-549 breast) was 274 nM. It also gave a TGI (BT-549 breast) of 765 nM, a GI50 (CAKI-1 renal) of 450 nM and a TGI (CAKI-1 renal) of 47000 nM. The GI50 (CCRF-CEM leukemia) was 354 nM, the TGI (CCRF-CEM leukemia) was > 86400 nM and the GI50 (COLO 205 colon) was 488 nM. The TGI (COLO 205 colon) was 1680 nM, the GI50 (DU-145 prostate) was 346 nM and the TGI (DU-145 prostate) was 34100 nM. For the same molecule, the GI50 (EKVX NSCLC) was 1180 nM, the TGI (EKVX NSCLC) was > 100000 nM and the GI50 (HCC-2998 colon) was 453 nM. The TGI (HCC-2998 colon) was 46000 nM, the GI50 (HCT-116 colon) was 231 nM and the TGI (HCT-116 colon) was 7060 nM. For the same molecule, the GI50 (HCT-15 colon) was 277 nM, the GI50 (HL-60(TB) leukemia) was 226 nM and the TGI (HL-60(TB) leukemia) was 612 nM. For the same molecule, the GI50 (HOP-62 NSCLC) was 766 nM, the TGI (HOP-62 NSCLC) was 41600 nM and the GI50 (HOP-92 NSCLC) was 1370 nM. It also gave a TGI (HOP-92 NSCLC) of 68300 nM, a GI50 (HS 578T breast) of 496 nM and a TGI (HS 578T breast) of 34900 nM. For the same molecule, the GI50 (HT29 colon) was 319 nM, the TGI (HT29 colon) was 10700 nM and the GI50 (IGROV1 ovarian) was 386 nM. For the same molecule, the TGI (IGROV1 ovarian) was 21400 nM, the GI50 (K-562 leukemia) was 235 nM and the TGI (K-562 leukemia) was > 73800 nM. For the same molecule, the GI50 (KM12 colon) was 402 nM, the TGI (KM12 colon) was 27900 nM and the GI50 (LOX IMVI melanoma) was 308 nM. For the same molecule, the TGI (LOX IMVI melanoma) was 1350 nM, the GI50 (M14 melanoma) was 318 nM and the TGI (M14 melanoma) was > 100000 nM. The GI50 (MALME-3M melanoma) was 489 nM, the TGI (MALME-3M melanoma) was > 74400 nM and the GI50 (MCF7 breast) was 266 nM. It also gave a TGI (MCF7 breast) of 4210 nM, a GI50 (MDA-MB-231 breast) of 290 nM and a TGI (MDA-MB-231 breast) of 3090 nM. It also gave a GI50 (MDA-MB-435) of 196 nM, a TGI (MDA-MB-435) of 384 nM and a GI50 (MOLT-4 leukemia) of 330 nM. The TGI (MOLT-4 leukemia) was > 21400 nM, the GI50 (NCI-H226 lung) was 313 nM and the TGI (NCI-H226 lung) was 6930 nM. For the same molecule, the GI50 (NCI-H23 lung) was 426 nM, the TGI (NCI-H23 lung) was 38800 nM and the GI50 (NCI-H460 lung) was 335 nM. For the same molecule, the TGI (NCI-H460 lung) was 3270 nM, the GI50 (NCI-H522 lung) was 71.9 nM and the TGI (NCI-H522 lung) was 242 nM. For the same molecule, the GI50 (NCI/ADR-RES ovarian) was 144 nM, the GI50 (OVCAR-3 ovarian) was 321 nM and the TGI (OVCAR-3 ovarian) was 4180 nM. The GI50 (OVCAR-4 ovarian) was 594 nM, the TGI (OVCAR-4 ovarian) was 69800 nM and the GI50 (OVCAR-5 ovarian) was 424 nM. For the same molecule, the TGI (OVCAR-5 ovarian) was > 100000 nM, the GI50 (OVCAR-8 ovarian) was 214 nM and the TGI (OVCAR-8 ovarian) was 714 nM. For the same molecule, the GI50 (PC-3 prostate) was 450 nM, the TGI (PC-3 prostate) was > 100000 nM and the GI50 (RPMI-8226 leukemia) was 356 nM. The TGI (RPMI-8226 leukemia) was > 52500 nM, the GI50 (RXF 393 renal) was 547 nM and the TGI (RXF 393 renal) was 5010 nM. For the same molecule, the GI50 (SF-268 CNS) was 574 nM, the TGI (SF-268 CNS) was > 100000 nM and the GI50 (SF-295 CNS) was 275 nM. It also gave a TGI (SF-295 CNS) of 3220 nM, a GI50 (SF-539 CNS) of 122 nM and a TGI (SF-539 CNS) of 429 nM. For the same molecule, the GI50 (SK-MEL-2 melanoma) was 325 nM, the TGI (SK-MEL-2 melanoma) was 21000 nM and the GI50 (SK-MEL-28 melanoma) was 627 nM. The TGI (SK-MEL-28 melanoma) was > 100000 nM, the GI50 (SK-MEL-5 melanoma) was 284 nM and the TGI (SK-MEL-5 melanoma) was 878 nM. The GI50 (SK-OV-3 ovarian) was 409 nM, the TGI (SK-OV-3 ovarian) was 91200 nM and the GI50 (SN12C renal) was 350 nM. For the same molecule, the TGI (SN12C renal) was 32900 nM, the GI50 (SNB-19 CNS) was 331 nM and the TGI (SNB-19 CNS) was > 90200 nM. It also gave a GI50 (SNB-75 CNS) of 259 nM, a TGI (SNB-75 CNS) of 3450 nM and a GI50 (SR leukemia) of 290 nM. The TGI (SR leukemia) was 27600 nM, the GI50 (SW-620 colon) was 375 nM and the TGI (SW-620 colon) was > 100000 nM. For the same molecule, the GI50 (T-47D breast) was 2310 nM, the TGI (T-47D breast) was > 86800 nM and the GI50 (TK-10 renal) was 4190 nM. For the same molecule, the TGI (TK-10 renal) was > 100000 nM, the GI50 (U251 CNS) was 322 nM and the TGI (U251 CNS) was 18200 nM. The GI50 (UACC-257 melanoma) was 508 nM, the TGI (UACC-257 melanoma) was > 100000 nM and the GI50 (UACC-62 melanoma) was 334 nM. The TGI (UACC-62 melanoma) was 25900 nM, the GI50 (UO-31 renal) was 520 nM and the TGI (UO-31 renal) was > 100000 nM.
